Molecules are shown by their SMILES.

For series [1], the target named is T1, vanilloid receptors on vasodilator sensory nerves (Rattus norvegicus, UniProt O35433).
T1 construct: from tissue; host or cells: mesenteric arteries from female Wistar-Hannover rats
The experiment in a line: Vasodilator effect in isolated rat mesenteric artery segments contracted with phenylephrine. As to conditions: for activation of vanilloid receptors on perivascular sensory nerves: FIG. 7; for inhibition of the effect of capsaicin (antagonist action on vanilloid receptors): 1 mM acetaminophen or 100 μM p-aminophenol for 30 min; for vasorelaxation per se (agonist action on vanilloid receptors): p-aminophenol in the presence of ascorbic acid; for relaxation of arterial segments contracted with phenylephrine: FIG. 7c; for effect on the vasodilator action of AM404: capsazepine 3 μM, ruthenium red 1 μM. Here is the method: Recording of tension. Experiments were performed on mesenteric arteries from female Wistar-Hannover rats (250 g) as described (48). Briefly, the arteries were cut into ring segments and mounted in tissue baths, containing aerated physiological salt solution (5% CO2 and 95% O2; 37° C.; pH 7.4). […] We studied relaxant responses in preparations contracted with phenylephrine. When stable contractions were obtained, substances were added cumulatively to determine concentration-response relationships.
Calculations and statistics. Data are presented as means ±S.E.M. (vertical lines in figures), and n indicates the number of animals unless otherwise stated. GraphPad Prism 3.0 software was used for curve fitting (non-linear regressions) and calculations of pEC50 values. Mann-Whitney U-test or Student's t-test on log transformed values was used for statistical analysis. Statistical significance was accepted when P<0.05.

For a further series, the target named is T2, COX-1 (Ovis aries, UniProt P05979).
T2 sequence (P05979 25-600): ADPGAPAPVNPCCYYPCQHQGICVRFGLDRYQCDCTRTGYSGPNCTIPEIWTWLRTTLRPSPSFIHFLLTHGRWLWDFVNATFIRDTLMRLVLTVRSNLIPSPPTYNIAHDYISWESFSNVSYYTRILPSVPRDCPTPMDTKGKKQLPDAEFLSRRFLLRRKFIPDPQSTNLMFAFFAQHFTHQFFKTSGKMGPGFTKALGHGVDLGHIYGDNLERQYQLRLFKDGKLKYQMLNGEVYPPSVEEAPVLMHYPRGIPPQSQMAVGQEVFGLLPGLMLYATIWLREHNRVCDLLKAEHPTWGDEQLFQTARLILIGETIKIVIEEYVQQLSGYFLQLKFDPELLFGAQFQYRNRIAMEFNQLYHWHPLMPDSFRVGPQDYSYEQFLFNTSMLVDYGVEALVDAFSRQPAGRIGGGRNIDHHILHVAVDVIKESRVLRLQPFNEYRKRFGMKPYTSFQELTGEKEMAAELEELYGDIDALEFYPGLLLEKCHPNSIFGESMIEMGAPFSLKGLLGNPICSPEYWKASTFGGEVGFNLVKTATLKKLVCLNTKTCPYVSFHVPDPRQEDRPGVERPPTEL
As to conditions: isolated enzyme preparation; 10 μM arachidonic acid. As to the method:
(§1) COX activity was measured as prostaglandin formation in the presence of 10 μM arachidonic acid.
(§2) COX-1 and COX-2 assays. COX-1 and COX-2 activity was determined in the presence of 10 μM arachidonic acid using a COX (ovine) inhibitor screening assay (Cayman). Drugs were incubated with the enzyme preparation 8 min before application of arachidonic acid. Prostaglandin formation was used as a measure of COX activity and quantified via enzyme immunoassay (EIA).

For the next series, the target named is T3, COX-2 (Ovis aries, UniProt P79208).
T3 sequence (P79208 17-603): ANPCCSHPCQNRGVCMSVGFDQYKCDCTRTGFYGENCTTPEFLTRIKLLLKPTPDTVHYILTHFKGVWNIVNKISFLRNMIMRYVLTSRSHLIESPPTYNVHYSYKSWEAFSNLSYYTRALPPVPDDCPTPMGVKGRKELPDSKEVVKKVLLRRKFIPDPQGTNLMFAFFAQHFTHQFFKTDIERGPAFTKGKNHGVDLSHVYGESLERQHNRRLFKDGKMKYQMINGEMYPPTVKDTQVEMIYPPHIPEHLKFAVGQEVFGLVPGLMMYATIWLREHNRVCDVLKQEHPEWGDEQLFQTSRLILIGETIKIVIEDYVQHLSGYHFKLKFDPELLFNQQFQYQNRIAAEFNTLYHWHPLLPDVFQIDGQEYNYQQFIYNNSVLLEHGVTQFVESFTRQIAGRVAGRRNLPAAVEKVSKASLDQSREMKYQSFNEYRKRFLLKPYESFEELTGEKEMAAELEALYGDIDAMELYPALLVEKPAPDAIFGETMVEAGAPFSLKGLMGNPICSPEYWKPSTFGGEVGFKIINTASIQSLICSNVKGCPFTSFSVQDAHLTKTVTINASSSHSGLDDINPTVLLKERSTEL
The following applies: isolated enzyme preparation; 10 μM arachidonic acid. Here is the method: as §1, §2

The next series has as its system anandamide hydrolysis. The experiment in a line: Inhibition of [2H8]-anandamide hydrolysis in rat brain homogenates. It is filed as biochemical. As to conditions: 1 hour pre-incubation, [2H8]-anandamide 10 μM.
How the values of series [2] were obtained: In vivo experiments. Acetaminophen ([…]) or vehicle (saline) at a volume of 2-3 ml was given to female Wistar-Hannover rats (200-300 g) by an intraperitoneal injection. Some rats were pretreated with PMSF (10 mg kg^−1) or vehicle (saline:PEG 6000; 1:10 w/w) given subcutaneously (2-3 ml) 20 min before administration of acetaminophen. Approximately 20 min after injection of acetaminophen, the animals were killed to collect brain, liver, spinal cord and arterial blood. […] PMSF (0.1 mM) and ascorbic acid (0.3 mM) were also present in the Tris buffer and added to the blood samples to prevent degradation of fatty acid amides and p-aminophenol, respectively.
Quantitative analyses. The extraction residues were reconstituted in 100 μl methanol except for p-aminophenol, for which 100 μl 0.5% acetic acid was used. The quantitative analyses were performed using a Perkin Elmer 200 liquid chromatography system with autosampler (Applied Biosystems), coupled to an API 3000 tandem mass spectrometer (Applied Biosystems/MDS-SCIEX). All mobile phases were water-methanol gradients, containing 0.5% acetic acid, and the flow rate was 200 μl min^−1 except for arachidonic acid where it was 400 μl min^−1.
AM404, arachidonoyldopamine, arachidonoylserotonin and anandamide.
p-Aminophenol. Sample aliquots of 2 μl were injected on a Genesis phenyl column (150×2.1 mm; Jones). The mobile flow was initially 97% water for 2 min. […] The electrospray ion source was set at 450° C. and used in the positive ion mode. The ion spray voltage and declustering potential were set to 4500 volts and 55 volts, respectively. M/z 109.9/64.6 with a collision energy of 31 volts was used for the quantitative determinations.

This is another data set of the same source.
The subject of series [3] is AM404 production in brain homogenates. Nature of the series: Inhibition of AM404 formation in rat brain homogenates. It is filed as biochemical. As to conditions: 1 hour pre-incubation, p-aminophenol plus arachidonic acid each 100 μM.
Procedure: (§3) Tissue homogenate experiments. The brain, liver, spinal cord and dorsal root ganglia from female Wistar-Hannover rats (250 g) were homogenised in a Tris buffer (10 mM, pH 7.6), containing EDTA (1 mM), to give 90-330 mg tissue ml^−1. We carried out experiments in aliquots of 200 μl homogenate at 37° C. as further explained in the text. The reactions were stopped by adding 1 ml ice-cold acetone containing 1 μM [^2H8]-anandamide. The samples were kept on ice until the acetone phase was evaporated in vacuo.
For series [4] the following is noted: female, Wistar-Hannover, rat, pH 7.6.
Procedure: as §3
Sample aliquots of 5 μl were injected on a Genesis C8 column (20×2.1 mm; Jones). Initially, the mobile flow was 25% water for 5.5 min. […]
p-Aminophenol. […] M/z 109.9/64.6 with a collision energy of 31 volts was used for the quantitative determinations. […]
Where [5] appears, read: PMSF 10 mg kg^−1 s.c. 20 min before acetaminophen.

T1 sequence (O35433 whole entry): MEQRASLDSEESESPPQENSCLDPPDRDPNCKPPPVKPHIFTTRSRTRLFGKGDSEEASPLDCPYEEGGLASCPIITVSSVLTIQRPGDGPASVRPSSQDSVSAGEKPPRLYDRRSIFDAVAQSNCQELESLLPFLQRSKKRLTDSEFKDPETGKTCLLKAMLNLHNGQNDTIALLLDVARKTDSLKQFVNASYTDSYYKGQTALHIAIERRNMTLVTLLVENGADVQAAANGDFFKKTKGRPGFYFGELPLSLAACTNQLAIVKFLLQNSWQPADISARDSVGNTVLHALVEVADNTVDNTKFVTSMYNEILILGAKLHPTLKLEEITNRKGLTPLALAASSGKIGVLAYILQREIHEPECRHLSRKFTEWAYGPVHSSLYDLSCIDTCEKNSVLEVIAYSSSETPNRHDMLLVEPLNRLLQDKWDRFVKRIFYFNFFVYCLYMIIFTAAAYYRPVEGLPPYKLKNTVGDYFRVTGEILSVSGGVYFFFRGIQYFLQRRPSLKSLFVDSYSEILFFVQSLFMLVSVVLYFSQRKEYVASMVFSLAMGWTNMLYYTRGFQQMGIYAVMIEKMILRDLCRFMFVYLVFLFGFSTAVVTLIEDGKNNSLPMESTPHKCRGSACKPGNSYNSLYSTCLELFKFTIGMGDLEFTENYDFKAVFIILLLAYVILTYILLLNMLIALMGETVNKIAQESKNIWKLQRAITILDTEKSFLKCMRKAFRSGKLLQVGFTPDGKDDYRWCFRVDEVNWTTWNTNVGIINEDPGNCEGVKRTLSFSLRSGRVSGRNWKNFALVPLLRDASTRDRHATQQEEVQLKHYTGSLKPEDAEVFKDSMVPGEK
Procedure for anandamide hydrolysis: as §3
Sample aliquots of 5 μl were injected on a Genesis C18 column (50×2.1 mm; Jones). The HPLC was operated isocratically at 20% water and 80% methanol. The electrospray ion source was operating in the negative ion mode at 370° C., the ion spray voltage was −3000 volts and the declustering potential was −120 volts. M/z 310.8/267.0 with a collision energy of −22 volts was used for the quantitative determinations.

In the case of `CCCCC/C=C\C/C=C\C/C=C\C/C=C\CCCC(=O)OCC(O)CO` (stereo not drawn) [1-arachidonoylglycerol], the “activation of vanilloid receptors on perivascular sensory nerves” value (“activation of vanilloid receptors” for short) in series [1] is listed as “activators”.

Turning to `CCCCC/C=C\C/C=C\C/C=C\C/C=C\CCCC(=O)OC(CO)CO` [2-arachidonoylglycerol], the “activation of vanilloid receptors” value in series [1] is given as “activators”.

Turning to `CCCCCC=CCC=CCC=CCC=CCCCC(=O)Nc1ccc(O)cc1` [AM404, N-(4-hydroxyphenyl)-5,8,11,14-eicosatetraenamide], a half-maximal effect in series [1] (EC50) was put at 15.8 nM. In series [1] (capsaicin 1 μM for 30 min), the “relaxation of arteries pre-treated with capsaicin” value is given as “unable to relax”. Besides, the “effect on COX-1 activity” value at COX-1 is given as “concentration-dependently inhibited”. The “effect on COX-2 activity” value at COX-2 is “concentration-dependently inhibited”.

Regarding `O=S(=O)(F)Cc1ccccc1` [PMSF, phenyl-methyl-sulphonylfluoride], in the series on anandamide hydrolysis, the “pEC50 for inhibition of the hydrolysis of anandamide” value is 5.28±0.07. Moreover, in series [2] (setting [5]), the “effect on formation of AM404 in brain after acetaminophen” value is reported as “abolished” and the “reduction of p-aminophenol content in brain after acetaminophen” value came to 48%. In addition, for the setting “PMSF 100 μM added 1 hour before”, the “effect on formation of arachidonoyldopamine and arachidonoylserotonin” value is “almost abolished”. The “pEC50 for inhibition of the formation of AM404” value in series [3] was 5.41±0.03.

On to `CC(=O)Nc1ccc(O)cc1` [acetaminophen], for which the “AM404 formation in brain homogenates” value in series [4] (100 μM) is “did not result in any detectable levels of AM404”. In addition, the “AM404 in brain homogenates” value in series [4] (1 mM) amounted to 14 ± 2.6 pmol/g. Further, the “AM404 in brain, representative chromatogram of one animal” value in series [2] (female, Wistar-Hannover, rat, in vivo, 20 min) was 23.4 pmol/g. For the same molecule, in series [1], the “inhibition of the effect of capsaicin (antagonist action on vanilloid receptors)” value is listed as “nor inhibited the effect of capsaicin” and the “vasorelaxation per se (agonist action on vanilloid receptors)” value is “neither induced vasorelaxation per se”. Also, the “effect on COX-1 activity” value at COX-1 is reported as “No effect”. The “effect on COX-2 activity” value at COX-2 is given as “No effect”.

`CCCCC/C=C\C/C=C\C/C=C\C/C=C\CCCC(=O)NCCc1ccc(O)c(OC)c1` [arachidonoyl-3-methoxytyramine]: in series [1], the “activation of vanilloid receptors” value was “activators” and the “relaxation of arterial segments contracted with phenylephrine” value is “concentration-dependent relaxation”.

As to `CCCCC/C=C\C/C=C\C/C=C\C/C=C\CCCC(=O)NCCc1ccc(O)cc1` [arachidonoyltyramine], in series [1], the “activation of vanilloid receptors” value is recorded as “activators” and the “relaxation of arterial segments contracted with phenylephrine” value was “concentration-dependent relaxation”.

For `Oc1cc2c(cc1O)CN(C(=S)NCCc1ccc(Cl)cc1)CCC2` [capsazepine], the “effect on the vasodilator action of AM404” value in series [1] is on record as “inhibited”.

Turning to `NCCc1ccc(O)c(O)c1` [dopamine], the production of arachidonoyldopamine result (brain homogenates, dopamine 100 μM plus arachidonic acid 100 μM, 1 hour) is “substantial amounts”.

`Nc1ccc(O)cc1` [p-aminophenol]: in series [1], the “inhibition of the effect of capsaicin (antagonist action on vanilloid receptors)” value is on record as “nor inhibited the effect of capsaicin” and the “vasorelaxation per se (agonist action on vanilloid receptors)” value was “neither induced vasorelaxation per se”. Also, at COX-1, the “effect on COX-1 activity” value is “No effect”. For the same molecule, on COX-2, the “effect on COX-2 activity” value is listed as “No effect”.

Turning to `N.N.N.N.N.N.N.N.N.N.N.N.N.N.[Cl-].[Cl-].[Cl-].[Cl-].[Cl-].[Cl-].[O-2].[O-2].[Ru+3].[Ru+3].[Ru+4]` [ruthenium red], in series [1], the “effect on the vasodilator action of AM404” value is given as “inhibited”.

In the case of `NCCc1c[nH]c2ccc(O)cc12` [serotonin], under “brain homogenates, serotonin 100 μM plus arachidonic acid 100 μM, 1 hour”, the production of arachidonoylserotonin result is listed as “substantial amounts”.

Values taken from US20040209959A1, “Congeners of acetaminophen and related compounds as substrates for fatty acid conjugation and their use in treatment of pain, fever and inflammation” (priority 2001, published 2004).
